Assay: mean ionic activity coefficient (dimensionless); mn = molality of the nth substance listed, in mol/kg
Settings: 298.2 K, 101 kPa, Liquid, potentionmetric method

[Cl-].[Na+] [sodium chloride] + O
Settings | mean ionic activity coefficient
m1 = 0.001 | 0.965
m1 = 0.0101 | 0.902
m1 = 0.0502 | 0.82
m1 = 0.0993 | 0.777
m1 = 0.2495 | 0.718
m1 = 0.4993 | 0.68
m1 = 0.7496 | 0.663
m1 = 0.9996 | 0.655
m1 = 1.249 | 0.654
m1 = 1.5 | 0.656
m1 = 1.749 | 0.66
m1 = 1.999 | 0.667
m1 = 2.499 | 0.687
m1 = 3 | 0.713

Reference: the NIST ThermoML archive (doi:10.1016/j.fluid.2014.07.002)
